This assay has as its system acetylcholine-bromide-induced abdominal constriction (writhing). Nature of the assay: Mouse Acetylcholine-Bromide-Induced Abdominal Constriction Assay. The class given is in vivo. The conditions noted are these: for ED50: po, read-out: ED50 (dose which inhibits writhing by 50%). The protocol:
Mouse Acetylcholine-Bromide-Induced Abdominal Constriction Assay:
The mouse acetylcholine-induced abdominal constriction assay, as described by Collier et al. in Brit. J. Pharmacol. Chem. Ther., 32:295-310, 1968, with minor modifications was the test used to assess analgesic potency. The test drugs or appropriate vehicle were administered orally (p.o.) and 30 minutes later the animals received an intraperitoneal (i.p.) injection of 5.5 mg/kg acetylcholine bromide (Matheson, Coleman and Bell, East Rutherford, NJ). The mice were then placed in groups of four into glass bell jars and observed for a ten minute observation period for the occurrence of a writhe (defined as a wave of constriction and elongation passing caudally along the abdominal wall, accompanied by a twisting of the trunk and followed by extension of the hind limbs). The percent inhibition of writhing (equated to % analgesia) was calculated as follows: The % inhibition of writhing, i.e., % analgesia, is equal to the difference between the No. of control animals writhing and the No. of drug-treated animals writhing times 100 divided by the No. of control animals writhing.
At least 20 animals were used for control and in each of the drug treated groups. Four doses were used to determine each dose response curve and ED50 (that does which inhibits writhing by 50%). The ED50 values and their 95% fiducial limits were determined by a computer assisted probit analysis.
On the technique in general: An intraperitoneal irritant provokes the stretching counted in writhing tests.

Consider five molecules from patent US4716172A, “4-substituted octahydroquinolizine analgesic compounds and octahydroquinolizinium intermediates” (McNeilab, Inc., priority 1986, dated 1987).

Each structure is given as a SMILES string. Read-outs that look alike come from different tables or passages of the source.

As to `Brc1ccccc1[C@@H]1CCC[C@@H]2CCCCN21.Cl` (relative stereo) [Example 5e, trans-4(2-Bromophenyl)octahydro-2H-quinolizine Hydrochloride], the ED50 (commonly the dose that gives a 50% effect, or the effect in half of the subjects) (Mus musculus) amounted to 23 mg/kg. On the same count and under the same terms, the figure for `Cl.Ic1ccccc1[C@@H]1CCC[C@@H]2CCCCN21` (relative stereo) [Example 4e, trans-Octahydro-4-(2-iodophenyl)-2H-quinolizine Hydrochloride] is 30 mg/kg. As for `Cl.c1ccc(Oc2ccc([C@@H]3CCC[C@@H]4CCCCN43)cc2)cc1` (relative stereo) [Example 2e, trans-Octahydro-4-(4-phenoxyphenyl)-2H-quinolizine Hydrochloride], the ED50 (mouse, p.o., 30 minutes before i.p. 5.5 mg/kg acetylcholine bromide, ten minute observation) was found to be 8 mg/kg. In the case of `COc1cccc([C@@H]2CCC[C@@H]3CCCCN32)c1.Cl` (relative stereo) [Example 3e, trans-Octahydro-4-(3-methoxyphenyl)-2H-quinolizine Hydrochloride], the “% inhibition of writhing (% analgesia), printed in ED50 column” value (mouse, p.o., at 30 mg/Kg, 30 minutes before i.p. 5.5 mg/kg acetylcholine bromide, ten minute observation) is 40%.

`Clc1cccc(Cl)c1[C@@H]1CCC[C@@H]2CCCCN21.[O-][Cl+3]([O-])([O-])O` (relative stereo) [Example 1e, trans-4-(2,6-dichlorophenyl)octahydro-2H-quinolizine perchlorate]: the median effective dose (ED50) (Mus musculus) is 5 mg/kg.
